# Measurements: patent US6534496B1, “Thermogenic composition and benzazepine thermogenics” (Takeda Chemical Industries, Inc., priority 1997, dated 2003)
# Structures can show the parent of a compound that is named as a salt. Marks after values point to notes of the source that are not given here.
# Key:
# [1] = Assay of thermogenic activity in mice (Test Example 4); type: in vivo, male C57BL db/db mice; details: 1 mg/kg orally for 6 days; 24 hours-average regional temperature after the final administration; N=6
# Method: The telethermometer (VltaView™, Mini-Mitter Co., Inc., USA) was inplanted subcutaneously border on the scapulae of male C57BL db/db mice (CLEA Japan Inc., N=6) anesthetized with ether. After 7 days acclimatization, 1 mg/kg of the compound which was obtained in Example 23, was orally administrated for 6 days. The 24 hours-average regional temperature after the final administration was measured. The control was administrated 0.5% methylcellulose solution.
# [2] = Assay of reducing activity against weight gain of mice; type: in vivo, Male C57BL db/db mice
# Method: Male C57BL db/db mice (CLEA Japan Inc., 10 weeks old) was pretreated for 7 days, with solid feed (CLEA Japan Inc., CE-2). After acclimatization, 0.3 mg/kg or 1.0 mg/kg of the compound which, was obtained in Example 23, was oraly administrated for 6 weeks. Body weight was measured after the final administration. After the measurement, total blood was successively drawn from the orbital vain, and the visceral fat was collected and its weight was measured. Statistics analysis was carried out with Dunnett anlalysis.
# [3] = tested on: murine preadipocyte line (3T3-L1); test: Assay of intraadipocyte cAMP increasing activity using murine preadipocyte line (3T3-L1) (Test Example 3, compounds of the Examples); type: cell-based; details: Table 14
# Method: The intraadipocyte cAMP concentration-increasing activity of the above compound (I) was determined in an assay system using murine preadipocyte line 3T3-L1. Thus, 3T3-L1 preadipocytes were seeded onto a 96-well microtiter plate (10,000 cells/well) and cultured for 5-6 days until a confluent growth was formed. Thereafter, the adipocytes were further cultured for 72 hours. The test compound (I) (10^−5M, 10^−6M, 10^−7M, 10^−8M, and 10^−9M) was then added and the plate was allowed to sit at 37° C. for 40 minutes. The cells were washed with 3 portions of phosphate buffer at 4° C. (100 μl/well). Then, 0.1 N hydrochloric acid was added and the cells were denatured at 95° C. for 10 minutes. From each well, 25 μl was aspirated and dissolved in 75 μl of the assay a buffer included in Cyclic AMP Enzyme Immunoassay Kit (Kayman Chemical Company, USA). Using a 50 μl portion as the sample, cAMP was assayed using the above-mentioned Kit. Thus, using a 96-well microtiter plate precoated with anti-rabbit IgG mouse antibody, the above sample (50 μl) as well as the Cyclic AMP Tracer (50 μl) and Cyclic AMP Rabbit Antibody (50 μl) from the Kit were added and the plate was incubated at room temperature for 18 hours. After asperation, the plate was washed with 4 portions of the wash buffer (400 μl/well). Then, 200 μl of the color reagent included in the Kit was added to each well and the plate was incubated at room temperature with'shaking for 60 minutes. After completion of the reaction, the absorbance was measured at 405 nm to quantitate the cAMP.
# Each value is the mean result of 4 experiments. The test for statistical significance against the CAMP concentration of the control experiment (the test compound not added) was carried out by the known ANOVA. (* p<05 vs. control)
# Using the compounds obtained in Examples 1 through 130, as well as their salts, their intraadipocyte cAMP increasing activities were assayed by the same procedure as in Test Example 1.
# [4] = second line of Example 23, dose printed 0.3 mg/kg, orally for 6 weeks
# [5] = concentration of test compound 10^−5M
# [6] = concentration of test compound 10^−6M
# [7] = concentration of test compound 10^−7M
# [8] = concentration of test compound 10^−8M
# [9] = concentration of test compound 10^−9M
SMILES,"cAMP [3, 5]","cAMP [3, 6]","cAMP [3, 7]","cAMP [3, 8]","cAMP [3, 9]",other results
"CC(=O)N1CCC(CCC(=O)c2ccc3c(c2)CCN(Cc2ccccc2)CC3)CC1.Cl [Example 23, 3-(1-Acetyl-4-piperidinyl)-1-[3-(phenylmethyl)-2,3,4,5-tetrahydro-1H-3-benzazepin-7-yl]-1-propanone Hydrochloride]",–,–,–,–,–,"Regional temperature [1]: 35.54 °C; Amount of visceral fat (average ± S.E.) ([2]; 0.3 mg/kg orally for 6 weeks): 5.47 ± 0.36 g; Body weight, ending date of administration (average ± S.E.) ([2]; 0.3 mg/kg orally for 6 weeks): 40.87 ± 1.57 g; Body weight, starting date of administration (average ± S.E.) ([2]; 0.3 mg/kg orally for 6 weeks): 40.21 ± 0.48 g; Amount of visceral fat (average ± S.E.) ([2]; 1.0 mg/kg orally for 6 weeks): 5.13 ± 0.39 g; Body weight, ending date of administration (average ± S.E.) [2, 4]: 39.75 ± 1.55 g; Body weight, starting date of administration (average ± S.E.) [2, 4]: 40.40 ± 0.69 g"
Cc1ccccc1CN1CCc2ccc(C(=O)CCCC3CCN(Cc4cccc(Cl)c4)CC3)cc2CC1 [Example 130],430.6* pmol/ml,23.5* pmol/ml,5.7* pmol/ml,4.5 pmol/mL,3.4 pmol/mL,–
"Cc1ccccc1CN1CCc2ccc(C(=O)CCCC3CCN(Cc4ccccc4C)CC3)cc2CC1 [Example 127, 4-[1-[(2-Methylphenyl)methyl]-4-piperidinyl]-1-[3-[(2-methylphenyl)methyl]-2,3,4,5-tetrahydro-1H-3-benzazepin-7-yl]-1-butanone Dihydrochloride]",554.0* pmol/ml,100.0* pmol/ml,10.1* pmol/ml,4.7 pmol/mL,3.6 pmol/mL,–
"CC(=O)N1CCC(CCC(=O)c2ccc3c(c2)CCN3c2ccncc2)CC1 [Example 61, 3-(1-Acetyl-4-piperidinyl)-1-[1-(4-pyridyl)-2,3-dihydroindol-5-yl]-1-propanone]",–,–,–,–,–,melting point: 157 to 158 °C
